Results from ChEMBL document CHEMBL4480365, “Coupling the cell-penetrating peptides transportan and transportan 10 to primaquine enhances its activity against liver-stage malaria parasites” (Medchemcomm, 2019).
Active and inactive are the calls of the source. The rule behind the calls is not given here. Starred links: 1 amine or outer side, 2 acyl side, 3 side chain; linkers in the order of their positions; H or OH if unused. Residues, ends and D or L forms follow the SMILES beside them. *: point of attachment. X1 = COc1cc(NC(C)CCCNC(=O)C(N)CSSCC(N)C(=O)NC(=O)[C@H](CC(C)C)N*)c2ncccc2c1; Primaquine = COc1cc(NC(C)CCCN*)c2ncccc2c1; Suc = O=C(CCC(=O)[*:2])[*:1]

Experiments:
Huh-7 = experiment: Cytotoxicity against human HuH7 cells assessed as reduction in cell viability at 1 to 10 uM; type: cell-based; conditions: huh-7, 10 µM
Plasmodium berghei = experiment: Antiplasmodial activity against Plasmodium berghei liver-stage forms at 1 to 10 uM; type: functional, organism-based

Row | Compound | Activity (Huh-7) | Activity (Plasmodium berghei)
1 | CC[C@H](C)[C@H](NC(=O)[C@H](CCCCN)NC(=O)[C@H](CCCCN)NC(=O)[C@H](C)NC(=O)[C@H](CC(C)C)NC(=O)[C@H](C)NC(=O)[C@H](C)NC(=O)[C@H](CC(C)C)NC(=O)[C@H](C)NC(=O)[C@H](CCCCN)NC(=O)[C@H](CC(C)C)NC(=O)[C@H](CC(N)=O)NC(=O)[C@@H](NC(=O)[C@H](CCCCN)NC(=O)CNC(=O)[C@H](CC(C)C)NC(=O)[C@H](CC(C)C)NC(=O)[C@H](Cc1ccc(O)cc1)NC(=O)CNC(=O)[C@H](C)N)[C@@H](C)CC)C(=O)N[C@@H](CC(C)C)C(=O)O | Non-Toxic | Active
2 | CC[C@H](C)[C@H](NC(=O)[C@H](CCCCN)NC(=O)[C@H](CCCCN)NC(=O)[C@H](C)NC(=O)[C@H](CC(C)C)NC(=O)[C@H](C)NC(=O)[C@H](C)NC(=O)[C@H](CC(C)C)NC(=O)[C@H](C)NC(=O)[C@H](CCCCN)NC(=O)[C@H](CC(C)C)NC(=O)[C@H](CC(N)=O)NC(=O)[C@@H](NC(=O)[C@H](CCCCN)NC(=O)CNC(=O)[C@H](CC(C)C)NC(=O)[C@H](CC(C)C)NC(=O)[C@H](Cc1ccc(O)cc1)NC(=O)CNC(=O)[C@H](C)NC(=O)[C@H](CO)NC(=O)[C@H](CC(N)=O)NC(=O)[C@H](CC(C)C)NC(=O)[C@@H](NC(=O)[C@H](Cc1c[nH]c2ccccc12)NC(=O)CN)[C@@H](C)O)[C@@H](C)CC)C(=O)N[C@@H](CC(C)C)C(=O)O | Non-Toxic | inactive
3 | CC[C@H](C)[C@H](NC(=O)[C@H](CCCCN)NC(=O)[C@H](CCCCN)NC(=O)[C@H](C)NC(=O)[C@H](CC(C)C)NC(=O)[C@H](C)NC(=O)[C@H](C)NC(=O)[C@H](CC(C)C)NC(=O)[C@H](C)NC(=O)[C@H](CCCCN)NC(=O)[C@H](CC(C)C)NC(=O)[C@H](CC(N)=O)NC(=O)[C@@H](NC(=O)[C@H](CCCCN)NC(=O)CNC(=O)[C@H](CC(C)C)NC(=O)[C@H](CC(C)C)NC(=O)[C@H](Cc1ccc(O)cc1)NC(=O)CNC(=O)[C@H](C)NC(=O)CCC(=O)NCCCC(C)Nc1cc(OC)cc2cccnc12)[C@@H](C)CC)C(=O)N[C@@H](CC(C)C)C(=O)O (some centres undefined) | Non-Toxic | Active
4 | CC[C@H](C)[C@H](NC(=O)[C@H](CCCCN)NC(=O)[C@H](CCCCN)NC(=O)[C@H](C)NC(=O)[C@H](CC(C)C)NC(=O)[C@H](C)NC(=O)[C@H](C)NC(=O)[C@H](CC(C)C)NC(=O)[C@H](C)NC(=O)[C@H](CCCCN)NC(=O)[C@H](CC(C)C)NC(=O)[C@H](CC(N)=O)NC(=O)[C@@H](NC(=O)[C@H](CCCCN)NC(=O)CNC(=O)[C@H](CC(C)C)NC(=O)[C@H](CC(C)C)NC(=O)[C@H](Cc1ccc(O)cc1)NC(=O)CNC(=O)[C@H](C)N)[C@@H](C)CC)C(=O)N[C@@H](CC(C)C)C(=O)NC(=O)C(N)CSSCC(N)C(=O)NCCCC(C)Nc1cc(OC)cc2cccnc12 (some centres undefined) (H-AGYLLGKINLKALAALAKKI-X1) | Toxic | Active
5 | CC[C@H](C)[C@H](NC(=O)[C@H](CC(C)C)NC(=O)[C@H](Cc1ccccc1)NC(=O)[C@H](Cc1ccccc1)NC(=O)CCC(=O)NCCCC(C)Nc1cc(OC)cc2cccnc12)C(=O)N1CCC[C@H]1C(=O)N[C@@H](CCCCN)C(=O)NCC(=O)NCC(=O)N[C@@H](CCCNC(=N)N)C(=O)N[C@@H](CCCCN)C(=O)N[C@@H](CCCCN)C(=O)N[C@@H](CCCNC(=N)N)C(=O)N[C@@H](CCCNC(=N)N)C(=O)N[C@@H](CCC(N)=O)C(=O)N[C@@H](CCCNC(=N)N)C(=O)N[C@@H](CCCNC(=N)N)C(=O)N[C@@H](CCCNC(=N)N)C(=O)N1CCC[C@H]1C(=O)N1CCC[C@H]1C(=O)N[C@@H](CCC(N)=O)C(=O)O (some centres undefined) ({Primaquine-Suc}-FFLIPKGGRKKRRQRRRPPQ-OH) | Non-Toxic | –
6 | COc1cc(NC(C)CCCNC(=O)CCC(=O)N[C@@H](CCCNC(=N)N)C(=O)N[C@@H](CCCCN)C(=O)N[C@@H](CCCCN)C(=O)N[C@@H](CCCNC(=N)N)C(=O)N[C@@H](CCCNC(=N)N)C(=O)N[C@@H](CCC(N)=O)C(=O)N[C@@H](CCCNC(=N)N)C(=O)N[C@@H](CCCNC(=N)N)C(=O)N[C@@H](CCCNC(=N)N)C(=O)N2CCC[C@H]2C(=O)N2CCC[C@H]2C(=O)N[C@@H](CCC(N)=O)C(=O)O)c2ncccc2c1 (some centres undefined) ({Primaquine-Suc}-RKKRRQRRRPPQ-OH) | Non-Toxic | Active
7 | CC[C@H](C)[C@H](NC(=O)[C@H](CCCNC(=N)N)NC(=O)[C@@H](NC(=O)[C@H](C)NC(=O)[C@@H](NC(=O)[C@@H](NC(=O)[C@H](CC(C)C)NC(=O)[C@H](CCCNC(=N)N)NC(=O)[C@@H](NC(=O)CCC(=O)NCCCC(C)Nc1cc(OC)cc2cccnc12)C(C)C)[C@@H](C)CC)C(C)C)C(C)C)C(=O)N[C@@H](Cc1c[nH]c2ccccc12)C(=O)N[C@@H](CCCNC(=N)N)C(=O)N[C@@H](CCCNC(=N)N)C(=O)O (some centres undefined) ({Primaquine-Suc}-VRLIVAVRIWRR-OH) | Non-Toxic | inactive
8 | COc1cc(NC(C)CCCN)c2ncccc2c1 (centres undefined) [PRIMAQUINE] | Non-Toxic | Active
9 | H-FFLIPKGGRKKRRQRRRPPQ-OH | Non-Toxic | Active
10 | H-RKKRRQRRRPPQ-OH | Non-Toxic | Active
